Measured values: patent publication US10821126B2, “Agent for treating retinopathy” (CARNA HEALTH SUPPORT LTD., priority 2016, dated 2020)
Where “and” joins values, the source holds several entries; their conditions need not be identical. Equal values may be shown once.

Assays:
[1] = test system: increase of retinal vascular permeability in db/db mouse; assay: Retinal vascular permeability (retinal albumin amount by western blot) in spontaneous type 2 diabetes model db/db mouse; assay type: in vivo; conditions: oral
Description: Subsequently, the amelioration effect on diabetic retinal function (amelioration effect on permeability increase which is a representative abnormality of diabetic retinal vessels) by the therapeutic agent of the present invention (existing SGLT2 inhibitor agent) was confirmed by using spontaneous type 2 diabetes model db/db mouse.
Since 8 weeks after birth of spontaneous type 2 diabetes model db/db mouse, a dosage amount (10 mg/kg/day as luseogliflozin) of luseogliflozin hydrate which is an existing SGLT2 inhibitor agent, with which an antihyperglycemic action is confirmed in mouse was orally administered. Two weeks after administration of SGLT2 inhibitor agent, the mouse was euthanized, and all blood vessels were sufficiently refluxed with 10 ml of phosphate buffer solution (PBS), and the eyeballs were extracted. After isolating retina, the albumin amount in the retinal tissues leaked from the blood vessels was measured by western blott method, to assess the vascular permeability increase. The albumin amount in retina was corrected with […], and is shown by % control by using control db/+ mouse as a standard.
Next, similarly as for luseogliflozin, the function improvement on increase of retinal vascular permeability was assessed using canagliflozin. Canagliflozin hydrate which is an existing SGLT2 inhibitor agent was orally administered for 2 weeks, at a dosage amount (3 mg/kg/day as canagliflozin) with which an antihyperglycemic action is confirmed in mouse, and at a low dosage (0.01 mg/kg/day as canagliflozin) not showing an antihyperglycemic action.

[2] = test system: spontaneous type 2 diabetes model db/db mouse; assay: Effects on body weight, feed intake, urine volume and blood sugar in db/db mouse; assay type: in vivo; conditions: oral, 2 weeks
Description: The above-mentioned low dosage (0.01 mg/kg/day as canagliflozin) not showing an antihyperglycemic action was confirmed by the following method.
[…] Effects on body weight, feed intake, urine volume and blood sugar were confirmed.
FIGS. 6 and 7 show the results of fructosamine level which is an index for fasting blood sugar and average blood sugar levels when administering 3 mg/kg/day and 0.01 mg/kg/day of canagliflozin hydrate.

[3] = test system: diabetic retinopathy having macular edema; assay: Cases of diabetic retinopathy having macular edema, assessed by optical coherence tomography (OCT), HbA1c and vision; assay type: in vivo, human
Description: To four cases of diabetic retinopathy having macular edema to which conventional intraocular injection of steroid or anti-VEGF antibody was not effective, the therapeutic agent of the present invention (existing SGLT2 inhibitor) was administered at a normal dosage amount or at a lower dosage amount, and the effect was confirmed. Specifically, for the three cases using dapagliflozin and one case using canagliflozin, the effect was confirmed by assessment using optical coherence tomography (OCT). Person; suffering from type 2 diabetes, accompanied with proliferative retinopathy in both eyes, and macular edema in both eyes. Steroid sub-tenon injection was frequently performed but was treatment-resistant. […], person; suffering from type 2 diabetes, accompanied with proliferative retinopathy in both eyes, and macular edema in both eyes. Steroid sub-tenon injection was performed but was treatment-resistant. […], person; suffering from type 2 diabetes, accompanied with simple diabetic retinopathy in both eyes, and macular edema in right eye. […], person; suffering from type 2 diabetes, accompanied with preproliferative diabetic retinopathy in both eyes, and macular edema in right eye. Steroid intraocular injection was performed to right eye macular edema, but was resistant.

SGLT2 = target: T1, SGLT2 (Homo sapiens, UniProt P31639); conditions: cited from earlier work
T1 sequence (P31639 1-672): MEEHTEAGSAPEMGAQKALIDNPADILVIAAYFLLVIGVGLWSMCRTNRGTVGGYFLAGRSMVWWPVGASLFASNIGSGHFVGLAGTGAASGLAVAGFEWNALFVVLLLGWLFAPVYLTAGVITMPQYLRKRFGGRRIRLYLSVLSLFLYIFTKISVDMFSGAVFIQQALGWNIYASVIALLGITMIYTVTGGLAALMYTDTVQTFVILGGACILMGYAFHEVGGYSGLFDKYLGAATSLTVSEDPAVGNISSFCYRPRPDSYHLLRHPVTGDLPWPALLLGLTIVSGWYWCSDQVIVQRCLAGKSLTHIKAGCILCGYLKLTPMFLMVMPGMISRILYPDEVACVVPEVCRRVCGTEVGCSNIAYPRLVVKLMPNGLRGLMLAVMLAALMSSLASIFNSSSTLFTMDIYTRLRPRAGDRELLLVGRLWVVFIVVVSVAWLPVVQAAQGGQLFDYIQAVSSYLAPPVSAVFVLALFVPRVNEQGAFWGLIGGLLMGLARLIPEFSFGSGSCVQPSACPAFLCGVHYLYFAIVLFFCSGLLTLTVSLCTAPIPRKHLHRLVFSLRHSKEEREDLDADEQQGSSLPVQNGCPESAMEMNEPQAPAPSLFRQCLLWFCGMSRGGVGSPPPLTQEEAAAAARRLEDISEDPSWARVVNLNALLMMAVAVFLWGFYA

[4] = authorized minimum dosage amount; cited from earlier work

SMILES: Cc1ccc([C@@H]2O[C@H](CO)[C@@H](O)[C@H](O)[C@H]2O)cc1Cc1ccc(-c2ccc(F)cc2)s1 [canagliflozin hydrate]
- increase of retinal albumin amount (retinal vascular permeability) ([1]; 0.01 mg/kg/day as canagliflozin, 2 weeks): significantly ameliorated to the control group level
- increase of retinal albumin amount (retinal vascular permeability) ([1]; 3 mg/kg/day as canagliflozin, 2 weeks): significantly ameliorated to the control group level
- blood sugar ([2]; 0.001 mg/kg/day): no significant decrease
- blood sugar ([2]; 0.01 mg/kg/day, hydrate): no significant blood sugar decrease
- blood sugar ([2]; 0.1 mg/kg/day): no significant decrease
- fructosamine level which is an index for fasting blood sugar and average blood sugar levels ([2]; 3 mg/kg/day, vs non-administered group (FIGS. 6 and 7)): significantly decreased
- blood sugar control ([3]; Case 2, 100 mg/day as canagliflozin): no change in blood sugar control
- HbA1 after administration ([3]; Case 2, 100 mg/day as canagliflozin, 8.0 before administration, hydrate): 8.4 and 8.1 and 7.8
- OCT findings ([3]; Case 2, 100 mg/day as canagliflozin, about 5 months after initiation of administration): decrease of macular retinal thickness, cyst reduction, and significant amelioration of laminar structure
- vision, right eye, after administration ([3]; Case 2, 100 mg/day as canagliflozin, from 0.4): 0.5
- vision, left eye, after administration ([3]; Case 2, 100 mg/day as canagliflozin, from 0.7): 1.2

SMILES: CCOc1ccc(Cc2cc([C@@H]3O[C@H](CO)[C@@H](O)[C@H](O)[C@H]3O)ccc2Cl)cc1 [dapagliflozin propylene glycol hydrate]
- HbA1 after administration ([3]; Case 1, 2.5 mg/day as dapagliflozin, 6.7 before administration): 6.6
- vision, left eye, after administration ([3]; Case 1, 2.5 mg/day as dapagliflozin, did not change): 1.2
- vision, right eye, after administration ([3]; Case 1, 2.5 mg/day as dapagliflozin, from 0.7): 0.8
- vision after administration ([3]; Case 3, 2.5 mg/day as dapagliflozin, from 0.15): 0.2
- HbA1c after administration ([3]; Case 3, 2.5 mg/day as dapagliflozin, from 8.7): 8.0
- vision ([3]; Case 4, 2.5 mg/day as dapagliflozin, did not change due to severe retinopathy): 0.1
- HbA1c after administration ([3]; Case 4, 2.5 mg/day as dapagliflozin, from 5.9, no change): 6.1%

SMILES: OC[C@H]1O[C@@H](c2ccc(Cl)c(Cc3ccc(O[C@H]4CCOC4)cc3)c2)[C@H](O)[C@@H](O)[C@@H]1O [empagliflozin]
- IC50 level showing the inhibition activity, compared with canagliflozin (SGLT2): similar
- maximum blood concentration (Cmax) in the minimum dosage amount, relative to that of canagliflozin [4]: approximately 1/10

SMILES: OC[C@H]1O[C@@H](c2ccc(F)c(Cc3cc4ccccc4s3)c2)[C@H](O)[C@@H](O)[C@@H]1O [ipragliflozin L-proline]
- IC50 level showing the inhibition activity, compared with canagliflozin (SGLT2): similar

SMILES: CCOc1ccc(Cc2cc([C@@H]3S[C@H](CO)[C@@H](O)[C@H](O)[C@H]3O)c(OC)cc2C)cc1 [luseogliflozin hydrate]
- IC50 level showing the inhibition activity, compared with canagliflozin (SGLT2): similar
- increase of retinal albumin amount (retinal vascular permeability) ([1]; 10 mg/kg/day as luseogliflozin, two weeks): significantly ameliorated to the control group level
- maximum blood concentration (Cmax) in the minimum dosage amount, relative to that of canagliflozin [4]: approximately 1/10

SMILES: CCc1ccc(Cc2ccc3c(c2)[C@]2(OC3)O[C@H](CO)[C@@H](O)[C@H](O)[C@H]2O)cc1 [tofogliflozin hydrate]
- IC50 level showing the inhibition activity, compared with canagliflozin (SGLT2): similar
- maximum blood concentration (Cmax) in the minimum dosage amount, relative to that of canagliflozin [4]: approximately 1/10
